Source: the supplement of paper PMC10307832

Assays:
Experiment in all cases: relative viability (nuclei count vs DMSO), 5 days (fraction); higher = more cells survive
AZ3146 + Lapatinib = compound: CN1CCC(CC1)OC2=CC(=C(C=C2)NC3=NC=C4C(=N3)N(C(=O)N4C)C5CCCC5)OC [AZ3146] + CS(=O)(=O)CCNCc1ccc(-c2ccc3ncnc(Nc4ccc(OCc5cccc(F)c5)c(Cl)c4)c3c2)o1 [Lapatinib] (partner 2 µM)
Outline: (§1)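 Five library-drug doses in √10 steps were combined with a fixed anchor-drug dose, or a single drug was given alone, by pin tool to lung cancer cell lines in 1536-well plates the day after seeding. Nuclei were stained and counted after 5 days. Relative viability is the nuclei count in treated wells over that in vehicle wells, taken as the median of duplicate plates.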

GSK-J4 + Phenformin = compound: CCOC(=O)CCNc1cc(N2CCc3ccccc3CC2)nc(-c2ccccn2)n1 [GSK-J4] + N=C(N)NC(=N)NCCc1ccccc1 [Phenformin] (partner 250 µM)
Outline: as §1

GSK-J4 + Vorinostat = compound: CCOC(=O)CCNc1cc(N2CCc3ccccc3CC2)nc(-c2ccccn2)n1 [GSK-J4] + O=C(CCCCCCC(=O)Nc1ccccc1)NO [Vorinostat] (partner 1 µM)
Outline: as §1

AZ3146 + Vorinostat = compound: CN1CCC(CC1)OC2=CC(=C(C=C2)NC3=NC=C4C(=N3)N(C(=O)N4C)C5CCCC5)OC [AZ3146] + O=C(CCCCCCC(=O)Nc1ccccc1)NO [Vorinostat] (partner 1 µM)
Outline: as §1

Cell Line | relative viability (AZ3146 + Lapatinib; first compound 0.08 µM) | relative viability (AZ3146 + Lapatinib; first compound 0.253 µM) | relative viability (AZ3146 + Lapatinib; first compound 0.8 µM) | relative viability (AZ3146 + Lapatinib; first compound 2.53 µM) | relative viability (AZ3146 + Lapatinib; first compound 8 µM) | relative viability (GSK-J4 + Phenformin; first compound 0.5 µM) | relative viability (GSK-J4 + Phenformin; first compound 1.581 µM) | relative viability (GSK-J4 + Phenformin; first compound 5 µM) | relative viability (GSK-J4 + Phenformin; first compound 15.81 µM) | relative viability (GSK-J4 + Phenformin; first compound 50 µM) | relative viability (GSK-J4 + Vorinostat; first compound 0.5 µM) | relative viability (GSK-J4 + Vorinostat; first compound 1.581 µM) | relative viability (GSK-J4 + Vorinostat; first compound 5 µM) | relative viability (GSK-J4 + Vorinostat; first compound 15.81 µM) | relative viability (GSK-J4 + Vorinostat; first compound 50 µM) | relative viability (AZ3146 + Vorinostat; first compound 0.08 µM) | relative viability (AZ3146 + Vorinostat; first compound 0.253 µM) | relative viability (AZ3146 + Vorinostat; first compound 0.8 µM) | relative viability (AZ3146 + Vorinostat; first compound 2.53 µM) | relative viability (AZ3146 + Vorinostat; first compound 8 µM)
NCI-H2009 | 0.817 | 0.975 | 1.06 | 1.09 | 0.409 | 0.456 | 0.419 | 0.354 | 0.341 | 0.222 | 0.731 | 0.622 | 0.56 | 0.682 | 0.259 | 0.635 | 0.673 | 0.743 | 0.704 | 0.543
COR-L 105 | 0.357 | 0.36 | 0.317 | 0.341 | 0.254 | 0.408 | 0.395 | 0.381 | 0.475 | 0.578 | 0.899 |  | 0.833 | 0.843 | 0.526 | 0.819 | 0.887 | 0.902 | 0.879 | 0.487
NCI-H1623 |  |  |  |  |  | 0.597 | 0.457 | 0.623 | 0.398 | 0.545 |  |  |  |  |  |  |  |  |  | 
HCC-827 | 0.155 | 0.191 | 0.175 | 0.237 | 0.191 | 0.366 | 0.383 | 0.426 | 0.355 | 0.398 | 0.873 | 0.731 | 0.782 | 0.774 | 0.787 | 0.774 | 0.916 | 0.641 | 0.844 | 0.892
EMC-BAC-2 | 0.85 | 0.845 | 0.954 | 0.954 | 0.987 | 0.502 | 0.471 | 0.267 | 0.51 | 0.34 | 0.494 | 0.497 |  | 0.364 | 0.457 |  |  | 0.519 | 0.534 | 0.368
NCI-H1703 | 1.16 | 1.26 | 0.953 | 0.892 | 0.372 |  |  |  |  |  |  |  |  |  |  |  |  |  |  | 
NCI-H2170 | 0.265 | 0.283 | 0.252 | 0.273 | 0.277 | 0.38 | 0.352 | 0.341 | 0.387 | 0.275 | 0.813 | 0.677 | 0.803 | 0.638 | 0.761 | 0.815 | 0.763 | 0.854 | 0.867 | 0.751
NCI-H1755 | 1.03 | 1.05 | 0.973 | 1.05 | 1.05 | 0.606 | 0.5 | 0.367 | 0.49 | 0.56 | 0.675 | 0.638 | 0.694 | 0.577 | 0.536 | 0.71 | 0.804 | 0.599 | 0.789 | 0.765
ChaGo-K-1 |  |  |  |  |  | 0.488 | 0.49 | 0.438 | 0.475 | 0.422 | 0.785 |  | 0.619 | 0.673 | 0.668 | 0.711 | 0.691 | 0.703 | 0.718 | 0.521
EKVX | 0.172 | 0.222 | 0.225 | 0.24 | 0.2 | 0.252 | 0.213 | 0.236 | 0.177 | 0.237 | 0.686 |  | 0.808 |  | 0.524 | 0.608 | 0.81 | 0.818 | 0.885 | 0.681
HCC-78 |  | 0.488 | 0.762 | 0.864 | 0.574 | 0.87 | 0.731 | 0.946 | 0.588 | 0.528 | 0.462 | 0.435 | 0.601 | 0.363 | 0.587 |  | 0.496 | 0.435 | 0.354 | 0.471
A-427 | 0.988 | 1.03 | 0.957 | 0.969 | 1.01 | 0.406 |  | 0.219 | 0.218 | 0.138 | 0.814 | 0.518 |  | 0.785 | 0.393 | 0.763 | 0.881 | 0.833 | 0.809 | 0.593
NCI-H3122 | 1.09 | 1.04 | 0.952 | 1 | 1.02 | 0.37 |  | 0.305 | 0.289 | 0.264 | 0.984 | 0.876 | 0.966 | 0.905 | 0.986 | 0.92 | 0.969 | 1.08 | 1.07 | 0.932
NCI-H1563 | 0.695 | 0.881 | 0.951 | 0.927 | 0.873 | 0.665 | 0.71 | 0.607 | 0.56 | 0.656 |  |  |  |  |  |  |  |  |  | 
SK-MES-1 | 0.496 | 0.43 | 0.424 | 0.523 | 0.432 | 0.582 | 0.585 | 0.594 | 0.565 | 0.371 | 0.986 | 0.968 | 1.04 | 1.04 | 0.524 | 1.04 | 1.17 | 1.14 | 1.19 | 0.701
SW 1573 | 1.19 | 1.17 | 1.07 | 1.04 | 1.05 | 0.315 | 0.326 | 0.336 | 0.262 | 0.247 | 0.817 | 0.396 | 0.406 | 0.845 | 0.276 | 0.636 | 0.767 | 0.643 | 0.723 | 0.307
NCI-H2347 | 0.853 | 0.832 | 0.939 | 1.04 | 1.03 | 0.324 | 0.384 | 0.507 |  | 0.499 | 0.605 | 0.558 | 0.586 | 0.518 | 0.538 | 0.523 | 0.562 | 0.574 | 0.717 | 0.596
LC-2-ad | 0.828 | 1.04 | 0.907 | 0.914 | 0.631 | 0.635 | 0.499 | 0.495 | 0.568 | 0.432 | 0.787 | 0.529 | 0.325 | 0.704 | 0.528 | 0.629 | 0.703 | 0.69 | 0.694 | 0.603
HCC-15 | 0.873 | 0.819 | 0.896 | 0.857 | 0.832 | 0.458 |  | 0.376 | 0.384 | 0.344 | 0.903 | 0.791 | 0.789 | 0.718 | 0.503 | 0.779 | 0.796 | 0.885 | 0.887 | 0.687
